Publication PMC11850249, “Typical and atypical metabolic characteristics of three iridaceae isoflavone components: in vitro and in silico studies” (Frontiers in Pharmacology, 2025)
Values joined by “and” are separate entries in the source; they are usually repeats but may differ in a detail not shown here. Identical values can stand only once. Like-named read-outs stand apart in the source and are kept apart here. Blank lines part the entries; values can stand above or below the compound they belong to.

Experiments:
[1] = tested on: recombinant CYP enzymes (CYP1A2, CYP2A6, CYP2C8, CYP2C9, CYP2C19, CYP2D6, CYP2E1, CYP3A4); experiment: Reaction phenotyping with recombinant CYP enzymes; format: in vitro ADME, human
Experimental: To assess the role of CYP enzymes to isoflavone metabolism, tectorigenin, irigenin, or irisflorentin (100 μM) was co-incubated with 25 pmol of recombinant CYP enzymes (CYP1A2, CYP2A6, CYP2C8, CYP2C9, CYP2C19, CYP2D6, CYP2E1, and CYP3A4) and MgCl2 (10 mM) in Tris-HCl buffer. The samples were pre-incubated at 37°C for 5 min, and the reaction was initiated by the addition of NADPH. After 30 min of incubation, the supernatant obtained by centrifugation after adding methanol to the incubated sample was analyzed by HPLC. All experiments were carried out in triplicate.

[2] = tested on: human liver microsomes (HLMs); experiment: Enzyme kinetics in HLMs; format: in vitro ADME; conditions: for Km: n = 3, read-out: Km for metabolite formation
Experimental: (§1) A series of concentrations (1–300 μM) of tectorigenin, irigenin, or irisflorentin were added to HLMs or recombinant enzymes. Nonlinear regression was performed on the substrate concentration and generation rate of metabolites to investigate the enzymatic kinetic characteristics of these components in the metabolic system. All experiments were carried out in triplicate.
(§2) A Waters AQUITY UPLC system (Waters, Milford, MA, United States) equipped with a Dikma ODS C18 column (150 × 4.6 mm, 5 μm) was used for separation at 30°C. The binary mobile phase consisted of A (an aqueous solution containing 0.1% acetic acid and 2 mM ammonium acetate) and B (acetonitrile) at a flow rate of 1 mL/min. The elution settings were as follows: 0 → 5 min: 10% B → 20% B; 5 min → 20 min: 20% B → 50% B; 20 min → 21 min: 50% B → 60% B; 21 min → 25 min: 60% B → 90% B; 25 min → 25.1 min 90%–10% B; 25.1 min → 30 min 10% B. Flow rate: 1 mL/min 260 nm was used as the detection wavelength. Calibration standard curves were generated using a reaction mixture containing tectorigenin, irigenin, or irisflorentin at a concentration range of 0.03–10 µM. The concentrations of the metabolites were calculated using a standard curve of the substrates.
(§3) GraphPad Prism software 5.0 was used to perform non-linear fitting between the metabolite generation rate (V) and substrate concentration [S]. The appropriateness of the enzyme kinetic model was determined using R ^2 and the Eadie-Hofstee fit. The maximum metabolic rate (Vmax) and Michaelis constant (Km) were obtained for kinetic processes that conformed to the Michaelis–Menten model (Equation 1). For kinetic processes that conform to the sigmoidal kinetics model (Equation 2), Vmax, Hill coefficient (n), and S50, concentrations at 50% Vmax were obtained. Intrinsic clearance (Clint) was calculated according to Equation 3 (for the Michaelis–Menten model) and Equation 4 (for the sigmoidal kinetics model). All data are expressed as mean ± Standard Error (SE). One - way analysis of variance was used to compare the differences between different groups. A p-value below 0.05 was regarded as statistically significant. V=VmaxS/Km+S (1) V=Vmax+C^n/S50n+C^n (2) Clint=Vmax/Km (3) Clint=Vmax/S50×n−1/nn−1^1/n (4)

CYP isoenzymes in HLMs = experiment: Inhibition by chemical CYP inhibitors in HLMs; format: in vitro ADME, human
Experimental: To investigate the role of specific CYP subtypes in metabolism, tectorigenin, irigenin, or irisflorentin (100 μM) was co-incubated with HLMs (0.5 mg protein/mL), NADPH (1 mM), and MgCl2 (10 mM) in the presence of known CYP inhibitors. The inhibitors used were α-Naph (20 μM) for CYP1A2 ([Zhang Y. J. et al., 2021]), Tryp (2 μM) for CYP2A6 ([Rodríguez-Morató et al., 2017]), Spz (10 μM) for CYP2C9 ([Berger et al., 2018]), Ticlo (2 μM) for CYP2B6 and 2C19 ([Yang et al., 2019]), Qd (8 μM) for CYP2D6 ([Martin et al., 2022]), DDC (100 μM) for CYP2E1 ([Zhang X. et al., 2021]), and KCZ (1 μM) for CYP3A4 ([Berger et al., 2018]). Finally, the samples obtained by centrifugation after adding ice-cold methanol to the incubated samples were analyzed using HPLC. Samples without inhibitors were used as controls to calculate the inhibition rates. Each inhibitor group and the control group were compared. All experiments were carried out in triplicate.

CYP2C19 = target: T1, CYP2C19 (Homo sapiens, UniProt P33261); experiment: Enzyme kinetics with recombinant CYP2C19; format: in vitro ADME
T1 construct: purchased CYPEX (Dundee, United Kingdom)
Experimental: as §1
(§4) A Waters AQUITY UPLC system (Waters, Milford, MA, United States) equipped with a Dikma ODS C18 column (150 × 4.6 mm, 5 μm) was used for separation at 30°C. The binary mobile phase consisted of A (an aqueous solution containing 0.1% acetic acid and 2 mM ammonium acetate) and B (acetonitrile) at a flow rate of 1 mL/min. […] The concentrations of the metabolites were calculated using a standard curve of the substrates.
(§5) GraphPad Prism software 5.0 was used to perform non-linear fitting between the metabolite generation rate (V) and substrate concentration [S]. The appropriateness of the enzyme kinetic model was determined using R ^2 and the Eadie-Hofstee fit. […] Intrinsic clearance (Clint) was calculated according to Equation 3 (for the Michaelis–Menten model) and Equation 4 (for the sigmoidal kinetics model). All data are expressed as mean ± Standard Error (SE). […]

rat liver microsomes = tested on: rat liver microsomes; design: method as in Zhang Y. J. et al., 2021; conditions: ref Zhang Y. J. et al., 2021; cited from earlier work
[3] = tested on: human liver microsomes (HLMs); experiment: Metabolic stability and metabolite identification in HLMs; format: in vitro ADME; conditions: 30 min
Experimental: To analyze the metabolic stability, a phase I metabolic system was established. Tectorigenin, irigenin, or irisflorentin (100 μM) was pre-incubated at 37°C with Tris-HCl buffer solution (50 mM), MgCl2 (10 mM), and HLMs (0.5 mg protein/mL). After 5 min, NADPH (1 mM) was added to start the metabolic reactions. After incubation for 30 min, an equal volume of methanol was added to terminate the reaction. After centrifugation, the supernatant was used for metabolite analysis. By comparing the high-performance liquid chromatography (HPLC) chromatograms of the samples incubated for 0 and 30 min to determine the generation of metabolites, mass spectrometry information for the metabolites was obtained using an UPLC-linear ion Trap-Orbitrap Mass Spectrometry method.
A UPLC system coupled with an LTQ-Orbitrap mass spectrometer (Thermo Fisher Scientific, Waltham, MA, United States) was used. The mass spectrometer was equipped with an electrospray ionization source operating in negative ion mode for tectorigenin and irigenin, and in positive ion mode for irisflorentin. The following parameter settings were used: sheath gas flow rate, 45 arb; auxiliary gas flow rate, 15 arb; capillary temperature, 350°C; spray voltage, 3.8 kV; and heating component temperature, 300°C. Xcalibur software (Thermo Fisher Scientific) was employed to acquire and process the data.

CYP1A2 = target: T2, CYP1A2 (Homo sapiens, UniProt P05177); experiment: Enzyme kinetics with recombinant CYP1A2; format: in vitro ADME
T2 construct: purchased CYPEX (Dundee, United Kingdom)
T2 sequence (P05177 1-516): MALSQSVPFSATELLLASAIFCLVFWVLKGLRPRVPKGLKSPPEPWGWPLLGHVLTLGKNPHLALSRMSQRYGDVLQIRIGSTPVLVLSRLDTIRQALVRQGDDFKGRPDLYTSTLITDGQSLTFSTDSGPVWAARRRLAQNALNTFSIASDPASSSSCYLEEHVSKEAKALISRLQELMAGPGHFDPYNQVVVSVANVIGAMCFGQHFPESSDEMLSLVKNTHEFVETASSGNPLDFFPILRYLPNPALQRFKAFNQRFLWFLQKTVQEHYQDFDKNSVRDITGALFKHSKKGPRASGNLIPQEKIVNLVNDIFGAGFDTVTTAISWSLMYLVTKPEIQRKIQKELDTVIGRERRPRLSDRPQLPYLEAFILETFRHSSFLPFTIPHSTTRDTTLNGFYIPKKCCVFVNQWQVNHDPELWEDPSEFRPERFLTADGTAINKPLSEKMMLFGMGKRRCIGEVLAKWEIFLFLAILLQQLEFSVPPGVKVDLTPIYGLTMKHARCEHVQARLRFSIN
Experimental: as §1, §4, §5

Enzyme kinetics in HLMs = format: in vitro ADME, human; conditions: human, human liver microsomes, calculated from Vmax and Km or S50, read-out: Clint for metabolite formation
Experimental: as §1, §2, §3

CYP2E1 = target: T3, CYP2E1 (Homo sapiens, UniProt P05181); experiment: Enzyme kinetics with recombinant CYP2E1; format: in vitro ADME
T3 construct: purchased CYPEX (Dundee, United Kingdom)
Experimental: as §1, §4, §5

CYP3A4 = target: T4, CYP3A4 (Homo sapiens, UniProt P08684); experiment: Enzyme kinetics with recombinant CYP3A4; format: in vitro ADME
T4 construct: purchased CYPEX (Dundee, United Kingdom)
Experimental: as §1, §4, §5

[4] = Michaelis-Menten model, mean ± SE

T4 sequence (P08684 whole entry): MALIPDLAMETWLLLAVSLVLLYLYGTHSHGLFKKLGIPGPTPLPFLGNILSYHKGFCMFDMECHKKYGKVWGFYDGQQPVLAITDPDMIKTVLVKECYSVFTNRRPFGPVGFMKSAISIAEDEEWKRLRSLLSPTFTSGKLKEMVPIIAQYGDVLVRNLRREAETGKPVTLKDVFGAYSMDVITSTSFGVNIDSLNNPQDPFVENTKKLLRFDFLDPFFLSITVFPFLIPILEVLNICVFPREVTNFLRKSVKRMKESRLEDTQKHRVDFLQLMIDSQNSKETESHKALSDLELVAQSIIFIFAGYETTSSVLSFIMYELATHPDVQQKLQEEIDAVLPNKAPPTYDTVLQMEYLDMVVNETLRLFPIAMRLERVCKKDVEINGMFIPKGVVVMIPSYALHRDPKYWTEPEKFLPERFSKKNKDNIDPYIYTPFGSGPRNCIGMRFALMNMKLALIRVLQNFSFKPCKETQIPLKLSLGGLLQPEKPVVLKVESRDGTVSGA
T3 sequence (P05181 whole entry): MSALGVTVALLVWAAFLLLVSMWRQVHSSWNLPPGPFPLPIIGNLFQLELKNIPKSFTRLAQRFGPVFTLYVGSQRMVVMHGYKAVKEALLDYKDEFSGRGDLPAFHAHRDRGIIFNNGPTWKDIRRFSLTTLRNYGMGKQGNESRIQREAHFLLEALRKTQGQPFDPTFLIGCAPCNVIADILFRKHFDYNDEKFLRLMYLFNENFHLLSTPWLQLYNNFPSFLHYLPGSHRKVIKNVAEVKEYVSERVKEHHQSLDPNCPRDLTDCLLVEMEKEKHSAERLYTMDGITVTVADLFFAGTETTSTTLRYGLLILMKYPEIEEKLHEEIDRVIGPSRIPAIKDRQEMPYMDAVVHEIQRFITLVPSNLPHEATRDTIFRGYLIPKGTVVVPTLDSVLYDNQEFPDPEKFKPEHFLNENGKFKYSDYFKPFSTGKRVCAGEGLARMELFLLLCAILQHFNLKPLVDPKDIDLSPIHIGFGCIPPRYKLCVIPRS
T1 sequence (P33261 whole entry): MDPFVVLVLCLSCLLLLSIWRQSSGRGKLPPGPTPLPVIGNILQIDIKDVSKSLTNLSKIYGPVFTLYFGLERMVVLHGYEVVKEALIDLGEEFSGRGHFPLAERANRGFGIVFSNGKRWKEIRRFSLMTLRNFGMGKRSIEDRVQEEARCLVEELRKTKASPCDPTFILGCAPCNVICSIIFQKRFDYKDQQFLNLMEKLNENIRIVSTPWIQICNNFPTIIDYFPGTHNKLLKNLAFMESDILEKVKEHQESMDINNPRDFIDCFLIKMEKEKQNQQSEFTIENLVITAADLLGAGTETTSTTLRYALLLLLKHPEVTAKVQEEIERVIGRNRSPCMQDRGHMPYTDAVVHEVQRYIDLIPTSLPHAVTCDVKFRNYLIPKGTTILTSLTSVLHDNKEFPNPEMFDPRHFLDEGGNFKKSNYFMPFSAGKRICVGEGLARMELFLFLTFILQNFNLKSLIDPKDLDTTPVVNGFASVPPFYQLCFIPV

Compound: COc1cc(-c2coc3cc(O)c(OC)c(O)c3c2=O)cc(O)c1OC [Irigenin]
recombinant CYP subtypes that catalyze metabolite formation ([1]; 100 μM substrate, 25 pmol recombinant CYP, 30 min, eight subtypes measured): CYP3A4, CYP2C9, and CYP2C19
metabolism by CYP2C19 relative to CYP2C9 and CYP3A4 ([1]; recombinant enzymes, CYP2C19 vs CYP2C9 and CYP3A4): 10–29 times
enzyme kinetic model (Eadie-Hofstee plot) [2]: Michaelis–Menten equation
Vmax for metabolite formation ([2]; Michaelis-Menten model, mean ± SE, n = 3): 263 ± 13.6 pmol/min/mg
Km [2, 4]: 17.5 ± 3.2 µM
effect of Ticlo on metabolite formation (in words) (CYP isoenzymes in HLMs): significantly inhibited
Clint (CYP2C19): 0.5 μL/min/pmol CYP

metabolism by CYP1A2 relative to CYP2C9, CYP2C19 and CYP3A4 ([1]; human, 30 min, 100 μM): 21–55 times
recombinant CYP subtypes that catalyze metabolite formation ([1]; human, 30 min, 100 μM): CYP1A2, CYP2C19, and CYP3A4
enzyme kinetic model (Eadie-Hofstee plot) [2]: sigmoidal kinetics characteristic
Vmax for metabolite formation ([2]; mean ± SE, n = 3): 235.4 ± 3.2 pmol/min/mg protein
Hill coefficient (n) ([2]; sigmoidal kinetics model): 1.8 ± 0.1
S50 ([2]; sigmoidal kinetics model, mean ± SE, n = 3): 32.9 ± 1.0 µM
effect of Ticlo on metabolite formation (in words) (CYP isoenzymes in HLMs): no effect or a weak inhibitory effect
effect of α-Naph on metabolite formation (in words) (CYP isoenzymes in HLMs): strong inhibition
Hill coefficient (CYP1A2; recombinant CYP1A2, sigmoidal kinetics): 1.5 ± 0.1 and 1.5
Clint (CYP1A2; recombinant CYP1A2, sigmoidal kinetics model): 1.5 μL/min/pmol CYP
Compound: COc1cc(-c2coc3cc4c(c(OC)c3c2=O)OCO4)cc(OC)c1OC [Irisflorentin]
Hill coefficient (rat liver microsomes): 1.48
major metabolite after incubation with HLMs ([3]; human, 100 μM): 6,7-dihydroxy-5,3′,4′,5′-tetramethoxy isoflavone

production of metabolites by CYP2E1 and CYP3A4 relative to the other subtypes ([1]; human, 30 min, 100 μM): 3–38 times
recombinant CYP subtypes that catalyze metabolite formation ([1]; human, 30 min, 100 μM): CYP1A2, CYP2C19, CYP2E1, and CYP3A4
microsomal CLint (Enzyme kinetics in HLMs): 2.6 µL/min/mg
enzyme kinetic model (Eadie-Hofstee plot) [2]: Michaelis–Menten equation
Km [2, 4]: 106 ± 7.3 µM
Vmax for metabolite formation ([2]; mean ± SE, n = 3): 275.9 ± 7.6 pmol/min/mg protein
effect of Ticlo on metabolite formation (in words) (CYP isoenzymes in HLMs; inhibitor Ticlo (CYP2B6 and 2C19 inhibitor), HLMs): no effect or a weak inhibitory effect
effect of α-Naph on metabolite formation (in words) (CYP isoenzymes in HLMs; inhibitor α-Naph (CYP1A2 inhibitor), HLMs): slight inhibition
Clint (CYP2E1): 0.2 μL/min/pmol CYP
major metabolite after incubation with HLMs ([3]; 100 μM substrate, HLMs 0.5 mg protein/mL, NADPH 1 mM): hydroxylation metabolite of tectorigenin
Clint (CYP3A4): 0.2 μL/min/pmol CYP
Compound: COc1c(O)cc2occ(-c3ccc(O)cc3)c(=O)c2c1O [Tectorigenin]
